# From patent US9738634B2, “Heterocyclic amide compound and herbicide” (SYNGENTA PARTICIPATIONS AG, priority 2013, dated 2017)
# Experiments:
# Type in all cases: in vivo
# barnyard grass [1] = test: Test Example 1: weedkilling efficacy, preemergent weed treatment in the submerged state; A: barnyard grass
# How it was run: (§1)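 Submerged pre-emergence treatment, water-surface application of compound emulsion at g/ha dosages; 4 cm flooded alluvial soil, weeds sown and 2.5-leaf rice transplanted same day. Rated after 3 weeks, greenhouse.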
# bulrush [2] = test: Test Example 1: weedkilling efficacy, preemergent weed treatment in the submerged state; B: bulrush
# How it was run: as §1
# oval-leafed pondweed [3] = test: Test Example 1: weedkilling efficacy, preemergent weed treatment in the submerged state; C: oval-leafed pondweed
# How it was run: as §1
# transplanted rice = test: Test Example 1: preemergent weed treatment in the submerged state, effect on crop; a: transplanted rice
# How it was run: as §1
# barnyard grass [4] = test: Test Example 2: weedkilling efficacy, growth period weed treatment in the submerged state; A: barnyard grass
# How it was run: (§2)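 Seedlings at 1-2 leaves in 4 cm-deep submerged alluvial soil received emulsion formulations on the water surface, dosed per hectare; effects were judged 3 weeks on.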
# bulrush [5] = test: Test Example 2: weedkilling efficacy, growth period weed treatment in the submerged state; B: bulrush
# How it was run: as §2
# oval-leafed pondweed [6] = test: Test Example 2: weedkilling efficacy, growth period weed treatment in the submerged state; C: oval-leafed pondweed
# How it was run: as §2
# green foxtail = test: Test Example 3: weedkilling efficacy through soil treatment; E: green foxtail; conditions: soil treatment
# How it was run: (§3)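 Crop and weed responses were judged three weeks after a uniform surface spray of the water-diluted emulsion at the given g/ha rate. Seeds sat beneath about 1.5 cm of sterilized diluvial soil, and boxes stood in a greenhouse at 25 to 30° C.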
# barnyard grass [7] = test: Test Example 3: weedkilling efficacy through soil treatment; F: barnyard grass; conditions: soil treatment
# How it was run: as §3
# wild oat = test: Test Example 3: weedkilling efficacy through soil treatment; G: wild oat; conditions: soil treatment
# How it was run: as §3
# black-grass = test: Test Example 3: weedkilling efficacy through soil treatment; H: black-grass; conditions: soil treatment
# How it was run: as §3
# Italian ryegrass = test: Test Example 3: weedkilling efficacy through soil treatment; I: Italian ryegrass; conditions: soil treatment
# How it was run: as §3
# common wind-grass = test: Test Example 3: weedkilling efficacy through soil treatment; J: common wind-grass; conditions: soil treatment
# How it was run: as §3
# Indian mallow = test: Test Example 3: weedkilling efficacy through soil treatment; K: Indian mallow; conditions: soil treatment
# How it was run: as §3
# redroot pigweed = test: Test Example 3: weedkilling efficacy through soil treatment; L: redroot pigweed; conditions: soil treatment
# How it was run: as §3
# fig-leafed goosefoot = test: Test Example 3: weedkilling efficacy through soil treatment; M: fig-leafed goosefoot; conditions: soil treatment, treatment dosage 320 g/ha
# How it was run: as §3
# chickweed = test: Test Example 3: weedkilling efficacy through soil treatment; N: chickweed; conditions: soil treatment
# How it was run: as §3
# catchweed = test: Test Example 3: weedkilling efficacy through soil treatment; O: catchweed; conditions: soil treatment
# How it was run: as §3
# birds-eye speedwell = test: Test Example 3: weedkilling efficacy through soil treatment; p: birds-eye speedwell; conditions: soil treatment
# How it was run: as §3
# directly sown rice = test: Test Example 3: soil treatment, effect on crop; b: directly sown rice; conditions: soil treatment
# How it was run: as §3
# corn = test: Test Example 3: soil treatment, effect on crop; c: corn; conditions: soil treatment
# How it was run: as §3
# soybean = test: Test Example 3: soil treatment, effect on crop; d: soybean; conditions: soil treatment
# How it was run: as §3
# wheat = test: Test Example 3: soil treatment, effect on crop; e: wheat; conditions: soil treatment
# How it was run: as §3
# beet = test: Test Example 3: soil treatment, effect on crop; f: beet; conditions: soil treatment
# How it was run: as §3
# rapeseed = test: Test Example 3: soil treatment, effect on crop; g: rapeseed; conditions: soil treatment
# How it was run: as §3
# crabgrass = test: Test Example 3: weedkilling efficacy through soil treatment; D: crabgrass; conditions: soil treatment, treatment dosage 315 g/ha
# How it was run: as §3
structure (smiles),measurement,setting,value
CC(C)(C(=O)Nc1nncs1)N1COCN(c2ccccc2)C1=O [A-1-12],"A: barnyard grass, weed kill grade",barnyard grass [1]; treatment dosage 320 g/ha,"5 (weed kill ratio 90% or more, (practically complete withering))"
same,"B: bulrush, weed kill grade",bulrush [2]; treatment dosage 320 g/ha,"5 (weed kill ratio 90% or more, (practically complete withering))"
same,"C: oval-leafed pondweed, weed kill grade",oval-leafed pondweed [3]; treatment dosage 320 g/ha,"4 (weed kill ratio 70% or more, less than 90%)"
same,"a: transplanted rice, effect on crop grade",transplanted rice; treatment dosage 320 g/ha,0 (weed kill ratio 5% or less (practically no effect))
same,A (barnyard grass) weedkilling efficacy grade,barnyard grass [4]; treatment dosage 320 g/ha,"1 (weed kill ratio 5% or more, less than 20%)"
same,B (bulrush) weedkilling efficacy grade,bulrush [5]; treatment dosage 320 g/ha,"5 (weed kill ratio 90% or more, (practically complete withering))"
same,C (oval-leafed pondweed) weedkilling efficacy grade,oval-leafed pondweed [6]; treatment dosage 320 g/ha,"3 (weed kill ratio 40% or more, less than 70%)"
same,"E: green foxtail, weedkilling efficacy grade",green foxtail; treatment dosage 320 g/ha,"5 (weed kill ratio 90% or more, (practically complete withering))"
same,"F: barnyard grass, weedkilling efficacy grade",barnyard grass [7]; treatment dosage 320 g/ha,"3 (weed kill ratio 40% or more, less than 70%)"
same,"G: wild oat, weedkilling efficacy grade",wild oat; treatment dosage 320 g/ha,"3 (weed kill ratio 40% or more, less than 70%)"
same,"H: black-grass, weedkilling efficacy grade",black-grass; treatment dosage 320 g/ha,"5 (weed kill ratio 90% or more, (practically complete withering))"
same,"I: Italian ryegrass, weedkilling efficacy grade",Italian ryegrass; treatment dosage 320 g/ha,"5 (weed kill ratio 90% or more, (practically complete withering))"
same,"J: common wind-grass, weedkilling efficacy grade",common wind-grass; treatment dosage 320 g/ha,"5 (weed kill ratio 90% or more, (practically complete withering))"
same,"K: Indian mallow, weedkilling efficacy grade",Indian mallow; treatment dosage 320 g/ha,0 (weed kill ratio 5% or less (practically no effect))
same,"L: redroot pigweed, weedkilling efficacy grade",redroot pigweed; treatment dosage 320 g/ha,0 (weed kill ratio 5% or less (practically no effect))
same,"M: fig-leafed goosefoot, weedkilling efficacy grade",fig-leafed goosefoot,"4 (weed kill ratio 70% or more, less than 90%)"
same,"N: chickweed, weedkilling efficacy grade",chickweed; treatment dosage 320 g/ha,"3 (weed kill ratio 40% or more, less than 70%)"
same,"O: catchweed, weedkilling efficacy grade",catchweed; treatment dosage 320 g/ha,0 (weed kill ratio 5% or less (practically no effect))
same,"P: birds-eye speedwell, weedkilling efficacy grade",birds-eye speedwell; treatment dosage 320 g/ha,"3 (weed kill ratio 40% or more, less than 70%)"
same,"b: directly sown rice, effect on crop grade",directly sown rice; treatment dosage 320 g/ha,"5 (weed kill ratio 90% or more, (practically complete withering))"
same,"c: corn, effect on crop grade",corn; treatment dosage 320 g/ha,0 (weed kill ratio 5% or less (practically no effect))
same,"d: soybean, effect on crop grade",soybean; treatment dosage 320 g/ha,"4 (weed kill ratio 70% or more, less than 90%)"
same,"e: wheat, effect on crop grade",wheat; treatment dosage 320 g/ha,0 (weed kill ratio 5% or less (practically no effect))
same,"f: beet, effect on crop grade",beet; treatment dosage 320 g/ha,"2 (weed kill ratio 20% or more, less than 40%)"
same,"g: rapeseed, effect on crop grade",rapeseed; treatment dosage 320 g/ha,0 (weed kill ratio 5% or less (practically no effect))
CC(C)(C(=O)Nc1cccc(CF)n1)N1COCN(c2ccccc2)C1=O [A-2-39],"A: barnyard grass, weed kill grade",barnyard grass [1]; treatment dosage 315 g/ha,"5 (weed kill ratio 90% or more, (practically complete withering))"
same,"B: bulrush, weed kill grade",bulrush [2]; treatment dosage 315 g/ha,"5 (weed kill ratio 90% or more, (practically complete withering))"
same,"C: oval-leafed pondweed, weed kill grade",oval-leafed pondweed [3]; treatment dosage 315 g/ha,"5 (weed kill ratio 90% or more, (practically complete withering))"
same,"a: transplanted rice, effect on crop grade",transplanted rice; treatment dosage 315 g/ha,"1 (weed kill ratio 5% or more, less than 20%)"
same,A (barnyard grass) weedkilling efficacy grade,barnyard grass [4]; treatment dosage 315 g/ha,"4 (weed kill ratio 70% or more, less than 90%)"
same,B (bulrush) weedkilling efficacy grade,bulrush [5]; treatment dosage 315 g/ha,"5 (weed kill ratio 90% or more, (practically complete withering))"
same,C (oval-leafed pondweed) weedkilling efficacy grade,oval-leafed pondweed [6]; treatment dosage 315 g/ha,"4 (weed kill ratio 70% or more, less than 90%)"
same,"D: crabgrass, weedkilling efficacy grade",crabgrass,"5 (weed kill ratio 90% or more, (practically complete withering))"
same,"E: green foxtail, weedkilling efficacy grade",green foxtail; treatment dosage 315 g/ha,"5 (weed kill ratio 90% or more, (practically complete withering))"
same,"F: barnyard grass, weedkilling efficacy grade",barnyard grass [7]; treatment dosage 315 g/ha,"5 (weed kill ratio 90% or more, (practically complete withering))"
same,"G: wild oat, weedkilling efficacy grade",wild oat; treatment dosage 315 g/ha,"4 (weed kill ratio 70% or more, less than 90%)"
same,"H: black-grass, weedkilling efficacy grade",black-grass; treatment dosage 315 g/ha,"5 (weed kill ratio 90% or more, (practically complete withering))"
same,"I: Italian ryegrass, weedkilling efficacy grade",Italian ryegrass; treatment dosage 315 g/ha,"5 (weed kill ratio 90% or more, (practically complete withering))"
same,"J: common wind-grass, weedkilling efficacy grade",common wind-grass; treatment dosage 315 g/ha,"5 (weed kill ratio 90% or more, (practically complete withering))"
same,"K: Indian mallow, weedkilling efficacy grade",Indian mallow; treatment dosage 315 g/ha,0 (weed kill ratio 5% or less (practically no effect))
same,"L: redroot pigweed, weedkilling efficacy grade",redroot pigweed; treatment dosage 315 g/ha,0 (weed kill ratio 5% or less (practically no effect))
same,"N: chickweed, weedkilling efficacy grade",chickweed; treatment dosage 315 g/ha,"2 (weed kill ratio 20% or more, less than 40%)"
same,"O: catchweed, weedkilling efficacy grade",catchweed; treatment dosage 315 g/ha,"5 (weed kill ratio 90% or more, (practically complete withering))"
same,"P: birds-eye speedwell, weedkilling efficacy grade",birds-eye speedwell; treatment dosage 315 g/ha,"5 (weed kill ratio 90% or more, (practically complete withering))"
same,"b: directly sown rice, effect on crop grade",directly sown rice; treatment dosage 315 g/ha,"4 (weed kill ratio 70% or more, less than 90%)"
same,"c: corn, effect on crop grade",corn; treatment dosage 315 g/ha,0 (weed kill ratio 5% or less (practically no effect))
same,"d: soybean, effect on crop grade",soybean; treatment dosage 315 g/ha,0 (weed kill ratio 5% or less (practically no effect))
same,"e: wheat, effect on crop grade",wheat; treatment dosage 315 g/ha,"1 (weed kill ratio 5% or more, less than 20%)"
same,"f: beet, effect on crop grade",beet; treatment dosage 315 g/ha,"3 (weed kill ratio 40% or more, less than 70%)"
same,"g: rapeseed, effect on crop grade",rapeseed; treatment dosage 315 g/ha,"2 (weed kill ratio 20% or more, less than 40%)"
COc1cc(Cl)nc(NC(=O)C(C)(C)N2COCN(c3ccccc3)C2=O)c1 [A-2-33],"A: barnyard grass, weed kill grade",barnyard grass [1]; treatment dosage 315 g/ha,"5 (weed kill ratio 90% or more, (practically complete withering))"
same,"B: bulrush, weed kill grade",bulrush [2]; treatment dosage 315 g/ha,"5 (weed kill ratio 90% or more, (practically complete withering))"
same,"C: oval-leafed pondweed, weed kill grade",oval-leafed pondweed [3]; treatment dosage 315 g/ha,"5 (weed kill ratio 90% or more, (practically complete withering))"
same,"a: transplanted rice, effect on crop grade",transplanted rice; treatment dosage 315 g/ha,"4 (weed kill ratio 70% or more, less than 90%)"
same,A (barnyard grass) weedkilling efficacy grade,barnyard grass [4]; treatment dosage 315 g/ha,"5 (weed kill ratio 90% or more, (practically complete withering))"
same,B (bulrush) weedkilling efficacy grade,bulrush [5]; treatment dosage 315 g/ha,"5 (weed kill ratio 90% or more, (practically complete withering))"
same,C (oval-leafed pondweed) weedkilling efficacy grade,oval-leafed pondweed [6]; treatment dosage 315 g/ha,"5 (weed kill ratio 90% or more, (practically complete withering))"
same,"D: crabgrass, weedkilling efficacy grade",crabgrass,"5 (weed kill ratio 90% or more, (practically complete withering))"
same,"E: green foxtail, weedkilling efficacy grade",green foxtail; treatment dosage 315 g/ha,"5 (weed kill ratio 90% or more, (practically complete withering))"
same,"F: barnyard grass, weedkilling efficacy grade",barnyard grass [7]; treatment dosage 315 g/ha,"4 (weed kill ratio 70% or more, less than 90%)"
same,"G: wild oat, weedkilling efficacy grade",wild oat; treatment dosage 315 g/ha,"4 (weed kill ratio 70% or more, less than 90%)"
same,"H: black-grass, weedkilling efficacy grade",black-grass; treatment dosage 315 g/ha,"5 (weed kill ratio 90% or more, (practically complete withering))"
same,"I: Italian ryegrass, weedkilling efficacy grade",Italian ryegrass; treatment dosage 315 g/ha,"5 (weed kill ratio 90% or more, (practically complete withering))"
same,"J: common wind-grass, weedkilling efficacy grade",common wind-grass; treatment dosage 315 g/ha,"5 (weed kill ratio 90% or more, (practically complete withering))"
same,"K: Indian mallow, weedkilling efficacy grade",Indian mallow; treatment dosage 315 g/ha,0 (weed kill ratio 5% or less (practically no effect))
same,"L: redroot pigweed, weedkilling efficacy grade",redroot pigweed; treatment dosage 315 g/ha,"2 (weed kill ratio 20% or more, less than 40%)"
same,"N: chickweed, weedkilling efficacy grade",chickweed; treatment dosage 315 g/ha,"4 (weed kill ratio 70% or more, less than 90%)"
same,"O: catchweed, weedkilling efficacy grade",catchweed; treatment dosage 315 g/ha,"5 (weed kill ratio 90% or more, (practically complete withering))"
same,"P: birds-eye speedwell, weedkilling efficacy grade",birds-eye speedwell; treatment dosage 315 g/ha,"5 (weed kill ratio 90% or more, (practically complete withering))"
same,"b: directly sown rice, effect on crop grade",directly sown rice; treatment dosage 315 g/ha,"3 (weed kill ratio 40% or more, less than 70%)"
same,"c: corn, effect on crop grade",corn; treatment dosage 315 g/ha,0 (weed kill ratio 5% or less (practically no effect))
same,"d: soybean, effect on crop grade",soybean; treatment dosage 315 g/ha,0 (weed kill ratio 5% or less (practically no effect))
same,"e: wheat, effect on crop grade",wheat; treatment dosage 315 g/ha,0 (weed kill ratio 5% or less (practically no effect))
same,"f: beet, effect on crop grade",beet; treatment dosage 315 g/ha,"1 (weed kill ratio 5% or more, less than 20%)"
same,"g: rapeseed, effect on crop grade",rapeseed; treatment dosage 315 g/ha,"3 (weed kill ratio 40% or more, less than 70%)"
